In PubChem BioAssay (NCI):
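Following 48 hours of exposure in 96-well plates, responses at five concentrations were used to interpolate endpoints linearly. GI50 is the concentration that inhibits growth by half. TGI: concentration producing complete growth inhibition.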

Tests used:
Assay in all cases: NCI tumour cell line growth inhibition, 48 h
A549 NSCLC = test system: A549 NSCLC
BT-549 breast = test system: BT-549 breast
HCT-116 colon = test system: HCT-116 colon
HCT-15 colon = test system: HCT-15 colon
IGROV1 ovarian = test system: IGROV1 ovarian
MALME-3M melanoma = test system: MALME-3M melanoma
NCI-H23 lung = test system: NCI-H23 lung
SK-MEL-28 melanoma = test system: SK-MEL-28 melanoma
SK-OV-3 ovarian = test system: SK-OV-3 ovarian
SNB-19 CNS = test system: SNB-19 CNS

SMILES	GI50 (A549 NSCLC) [µM]	TGI (A549 NSCLC) [µM]	GI50 (BT-549 breast) [µM]	TGI (BT-549 breast) [µM]	GI50 (HCT-116 colon) [µM]	TGI (HCT-116 colon) [µM]	GI50 (HCT-15 colon) [µM]	TGI (HCT-15 colon) [µM]	GI50 (IGROV1 ovarian) [µM]	TGI (IGROV1 ovarian) [µM]	GI50 (MALME-3M melanoma) [µM]	TGI (MALME-3M melanoma) [µM]	GI50 (NCI-H23 lung) [µM]	TGI (NCI-H23 lung) [µM]	GI50 (SK-MEL-28 melanoma) [µM]	TGI (SK-MEL-28 melanoma) [µM]	GI50 (SK-OV-3 ovarian) [µM]	TGI (SK-OV-3 ovarian) [µM]	GI50 (SNB-19 CNS) [µM]	TGI (SNB-19 CNS) [µM]
CC[C@@H](C(=O)O)C1CC[C@H](C)C([C@@H](C)[C@H](O)[C@H](C)C(=O)[C@H](CC)C2O[C@]3(C=C[C@@H](O)[C@]4(CC[C@@](C)(C5CC[C@](O)(CC)[C@H](C)O5)O4)O3)[C@H](C)C[C@@H]2C)O1 (stereo partly specified)	0.282	14.1	0.184	3.19	0.369	16.6	0.446	21.8	2.28	64.8	0.226	1.37	0.186	5.76	0.549	1.93	3.44	31.8	0.323	3.65
COc1ccc(-c2nc3sc4c(c3c(=O)[nH]2)CCCCCC4)cc1	2.94	> 33.2	5.4	> 33.2	1.39	> 33.2	0.655	> 33.2	6.38	> 33.2	3.72	> 33.2	> 33.2	> 33.2	6.67	> 33.2	1.6	> 33.2	4.74	> 33.2
O=C1c2cccnc2C(=O)c2nc3cc(N4CCN(C5CC5)CC4)ccc3nc21	0.213	0.669	1.04	2.38	0.789	7.12	0.257	1.28	0.808	3.01	0.178	0.457	0.229	0.85	0.567	1.98	0.648	2.89	0.465	3.63
Nc1nc2c(c3ncncc13)C(c1cccc(C(F)(F)F)c1)Cc1ncncc1-2 (stereo unspecified)	5.45	> 100	4.08	21.5	4.85	37	3.57	> 100	8.06	74.9	10.2	44.7	5.17	> 100	11.4	26.9	5.07	> 100	4.88	33.2
COc1cc(C2CC(c3ccc4c(c3)OCO4)=NN2C=O)cc(OC)c1OC (stereo unspecified)	> 24.5	> 100	5.21	> 100	1.52	> 100	1.58	> 100	2.37	> 100	1.93	> 100	4.14	> 100	6.36	> 100	2.25	> 100	6.3	> 100
COc1cccc2c1c(C(=O)C(=O)Nc1cc(C)no1)cn2Cc1ccc(F)cc1	23.8	> 100	5.36	> 100	5.58	> 64.1	2.64	> 100	3.68	> 45.8	93.2	> 100	> 40.5	> 84	7.59	> 89.6	31.4	> 100	10.1	> 100
COc1ccc2c(c1)cn1c3ccc(O)cc3nc(N)c21	0.174	4.22	4.72	22.7	0.0341	1.86	0.0585	5.99	0.176	6.59	0.0714	23.2	0.394	17.7	0.126	5.31	0.324	6.48	0.357	25
CCOC(=O)c1cc(NS(=O)(=O)c2ccccc2)cc(C(=O)OCC)c1	> 100	> 100	> 100	> 100	> 100	> 100	> 100	> 100	> 100	> 100	> 100	> 100	> 100	> 100	> 100	> 100	> 100	> 100	> 100	> 100
COc1ccc(/C=C(/C#N)C(N)=O)cc1OC	–	> 100	–	> 100	–	> 100	–	> 100	–	> 100	–	> 100	–	> 100	–	> 100	–	> 100	–	> 100
COc1ccc(-c2c3c(N)nc(-c4ccncc4)nc3nc3c2c(C)nn3-c2ccccc2)cc1	2.4	35.1	41.5	> 100	2.46	13.6	> 100	> 100	59.3	> 100	14.5	> 100	9.67	> 100	4.25	40.5	5.25	54	65.1	> 100
COc1cc2c(c(OC)c1)C1c3ccccc3NC(=O)N1CC2 (stereo unspecified)	4.59	> 100	6.24	80.7	3.69	> 100	3.14	> 100	7.71	> 100	10.4	67.8	3.69	> 100	9.41	28.5	3.67	> 100	7	> 100
COc1cccc(-n2ncc3c(N/N=C/c4ccc(C(=O)NCCN(C)C)cc4)ncnc32)c1	3.33	6.91	4.33	8.1	2.76	6.21	2.85	6.83	1.58	6.16	3.43	7.81	3.89	8.29	3.5	7.28	1.53	4.68	5.07	9.75
Cn1cc(-c2ccc3occ(-c4cccc(-c5ccncc5)c4)c3n2)cn1	0.714	> 100	1.22	17.1	0.382	> 100	0.285	> 100	0.592	> 100	1.19	> 100	1.26	> 100	1.77	> 100	1.82	> 100	1.21	> 100
CN(C)CCCNC(CC#N)CCC#N (stereo unspecified)	–	> 10	–	> 10	–	> 10	–	> 10	–	> 10	–	> 10	–	> 10	–	> 10	–	> 10	–	> 10
O=c1cc(-c2ccccc2)[nH]c2ccccc12	1.88	> 100	–	> 52.1	0.547	> 100	0.481	> 100	2.35	> 33.7	> 100	> 100	1.16	> 100	–	> 100	1.48	> 92.1	0.881	> 100
COC(=O)[C@@]1(C)CC[C@]2(C)CC[C@]3(C)C4=CC=C5C(=CC(=O)C(O)=C5C)[C@]4(C)[C@@H](O)C[C@@]3(C)[C@@H]2C1	15.9	30.1	10.5	22.3	3.67	14.3	5.07	17.7	6.73	19.1	4.91	16.2	13.5	28.4	9.43	19.7	19.1	42.2	12.4	23.8
CN1CCC(n2cnc(-c3ccc(F)cc3)c2-c2ccnc(NCCO)n2)CC1	11.9	> 25	> 25	> 25	14.5	> 25	20.7	> 25	18.1	> 25	23.8	> 25	> 25	> 25	> 25	> 25	> 25	> 25	> 25	> 25
COc1ccc(/C(C#N)=C/c2ccccc2OC)cc1	6.19	> 100	5.64	> 100	4.46	> 100	6.25	> 100	8.82	> 100	17.1	> 100	18.8	> 100	17.5	> 100	19.4	> 100	30.3	> 100
CN(C)CCNc1c2c(c(NCCN(C)C)c3[nH]ccc13)C(=O)c1ccccc1C2=O	0.748	13.3	1.08	3.04	0.281	–	0.168	3.55	1.19	> 100	3.3	11.9	1.82	–	3.1	9.5	5.57	17.7	0.93	12.1
COc1ccc(/C=C2\CCCC3=C2N=C2SC(C)=NN2C3c2ccc(OC)c(OC)c2)cc1OC (stereo unspecified)	31.8	> 100	7.37	> 100	3.26	14.3	3.49	19.4	18.4	93.8	15.1	56.6	8.2	> 100	8.92	> 100	62.5	> 100	39.2	> 100
Oc1cccc2ccc(N/N=C/c3cc(CN4CCCCC4)c(O)c4ncccc34)nc12	0.0365	1.15	0.0574	6.02	0.0426	1.71	0.0339	1.51	0.173	18.4	0.223	4.49	0.0485	1.45	0.362	15.9	0.0435	0.653	0.0413	18.7
OC(c1cc(-c2ccccc2)nc2ccc(Cl)cc12)C1CCCCN1 (stereo unspecified)	3.07	8.21	5.82	18.7	1.76	3.21	1.84	3.53	1.9	4.19	1.99	3.88	1.79	3.42	1.77	3.36	3.85	14.4	1.99	4.2
COc1ccc(-c2csc(N(C(=O)N3CCN(c4cc5c(cc4F)c(=O)c(C(=O)O)cn5C4CC4)CC3)c3ccccc3)n2)cc1	3.01	12.1	1.6	7.63	0.897	> 63.7	3.19	> 100	1.21	> 100	2.64	7.54	2.96	18.4	5.17	> 100	2.49	7.83	1.11	> 100
O=C(NCCCCCCNC(=O)n1cc(F)c(=O)[nH]c1=O)NCCCOCCOCCOCCOCCOCCOCCOCCOCCOCCOCCOCCOCCOCCOCCOCCOCCOCCOCCOCCOCCOCCCNC(=O)C(O)C(O)C(O)C(O)CO (stereo unspecified)	–	> 100	–	> 100	–	> 100	–	> 100	–	> 100	–	> 100	–	> 100	–	> 100	–	> 100	–	> 100
CC#C[C@]1(O)CC[C@H]2[C@@H]3CCC4=CC(=O)CCC4=C3[C@@H](c3ccc4c(c3)OCO4)C[C@@]21C	93.4	875	22.3	122	31.2	126	45.4	780	59.9	589	173	556	152	> 1000	85.8	276	186	777	174	> 1000
